Results: patent publication US20110015120A1, “Pharmaceutical and cosmetic compositions including lactoferrin, ciclopirox, etidronic acid” (VALETUDO S . r . l ., priority 2009, published 2011)
“And” between values parts separate entries of the source, which are not always exact repeats. Equal values may be shown once. “Also recorded” adds a separate entry of the source.

Tested on: MALASSEZIA GLOBOSA
Experiment: Inhibition of Malassezia globosa growth, colony count (UFC/ml) on Dixon's Agar
Format: cell-based
Conditions: for dil 10X colony count: 200 μl of suspension diluted 10X on Petri dish; for dil 10X colony count / X50 (calculation made based on the dilution): three replicates; for AVERAGE: average of three replicates; for % reduction of Malassezia globosa cells growth (% increase of antimycotic activity): compared to CICLOPIROXOLAMINE alone; for X50 (calculation made based on the dilution): dil 10X count x50
Protocol: To assess the capacity of the LACTOFERRIN to enhance the antimycotic action of the CIPROPIROXOLAMIN, a suspension of a MALASSEZIA GLOBOSA STRAIN is inoculated on a specific culture medium and the capacity of the compounds to inhibit the mycotic growth is observed, by counting of the UFC/ml.
As first approach, the two compounds are tested at the concentration of 1:500 and, subsequently, diluted in culture medium at 2 decreasing concentrations (10× and 100×) in order to visualize the individual activities. Then in order to evaluate the capacity of the LACTOFERRIN to increase the antimycotic effect of the CICLOPIROXOLAMIN, the same test was carried out on the mix of the two active ingredients at different ratios (1:2 and 1:5).
Each test was performed three times and the incubation times were 1 and 4 hours respectively.
Based on the results obtained, the best dilution for the execution of the tests was the 10× dilution and both the incubation times (1 hour and 4 hours) were taken into consideration since the experimental conditions permitted an accurate count to be carried out of the colonies on the Petri dishes.
The microorganism used is MALASSEZIA GLOBOSA.
The microorganisms were cultured in specific culture medium (Dixon's Agar) until reaching a concentration of approximately […] per ml. Aliquots of 1 ml of this inoculum were then taken to which were added respectively: • Ciclopiroxolamine 1:500 • Lactoferrin 1:500 • Mixture 1:2 Ciclopiroxolamine:lactoferrin • Mixture 1:5 Ciclopiroxolamine:lactoferrin
As positive control, the untreated inoculum was used (MALASSEZIA and diluting liquid), as negative controls the two active ingredients in diluting liquid.
After incubations of 1 hour and 4 hours respectively, aliquots of 200 μl of each suspension were spread on Petri dishes.
For each treatment, the test was carried out three times and for 3 different dilutions (non diluted suspension (TQ), dilution 10× and dilution 100×).
The 54 dishes obtained were then examined, after incubation of 5-6 days and the microbial load of each specimen was calculated (UFC/ml).
The % increase of the antimycotic property corresponds to the % reduction of the growth of Malassezia Globosa

Cc1cc(C2CCCCC2)n(O)c(=O)c1 [CICLOPIROXOLAMINE, Ciclopirox Olamine]
reduction in the growth of Malassezia Globosa (in words) (after four hours of incubation): marked reduction | reduction in the growth of Malassezia Globosa (in words) (after one hour of incubation): marked reduction | antimycotic activity towards Malassezia Globosa (in words) (overall statement): decidedly more effective in reducing the growth compared to the LACTOFERRIN; also recorded: marked antimycotic activity | Log (AVERAGE) (period of incubation 1 hour): 3.985 | dil 10X colony count (period of incubation 1 hour): 208 and 170 and 202 | AVERAGE (period of incubation 1 hour): 9666.667 UFC/ml | % reduction of Malassezia globosa cells growth (% increase of antimycotic activity) (period of incubation 1 hour): 0% | X50 (calculation made based on the dilution) (period of incubation 1 hour): 10400 UFC/ml and 8500 UFC/ml and 10100 UFC/ml | Log (AVERAGE) (period of incubation 4 hour): 3.209 | dil 10X colony count (period of incubation 4 hour): 38 and 34 and 25 | AVERAGE (period of incubation 4 hour): 1616.667 UFC/ml | % reduction of Malassezia globosa cells growth (% increase of antimycotic activity) (period of incubation 4 hour): 0% | X50 (calculation made based on the dilution) (period of incubation 4 hour): 1900 UFC/ml and 1700 UFC/ml and 1250 UFC/ml
